In patent US20200108043A1, “COMPOUNDS AND COMPOSITIONS FOR EXTENDING LIFESPAN OF A SUBJECT” (YALE UNIVERSITY, priority 2017, published 2020):
“Also recorded” adds a separate entry of the source. Residues, ends and D or L forms follow the SMILES beside them. *: point of attachment. Cbz = O=C(OCc1ccccc1)*

Experiments:
[1] = biological target: T1, proteasome (Saccharomyces cerevisiae, UniProt P30656); assay: Proteasome assay with fluorogenic substrate Suc-LLVY-AMC on yeast protein extracts; assay type: biochemical
T1 construct: with 50 μg of total protein in 200 μL of lysis buffer; endogenous in cells; host or cells: S. cerevisiae BY4741 wild-type or ΔUBR2 cells, glass-bead lysate (total protein extract)
Protocol: For protein extraction, 50 mL of cells were grown for 18 hours to an OD600 of approximately 0.8, then transferred to a 50 mL conical tube and centrifuged at 4255×g for 5 minutes at room temperature. The supernatant was discarded, and the cells were re-suspended in 150 μL of cold lysis buffer (50 mM Tris-HCl, pH 7.5, 0.5 mM EDTA, 5 mM MgCl2, with complete ULTRA mini protease inhibitor tablets, EDTA free) and transferred to a 1.5 mL tube. A ¼ volume of 500-750 μm glass beads (Acros Organics 397641000) was added to each tube. For 10 rounds, the tubes were chilled in ice water for 1 minute, then vortexed at maximum speed for 30 seconds to physically rupture the cells, and returned to the ice water. Samples were then spun for 3 minutes at 2500×g and 4° C., and the supernatant was transferred to a fresh tube. The solution was further clarified by centrifugation at 8000×g for 10 minutes at 4° C., and the supernatant was transferred to a fresh tube. Protein concentration was measured using a Nanodrop measuring the absorbance of the sample at 280 nm.
The proteasome assay used was described in Kruegel, et al. PLoS Genet. 7, (2011). The assay was performed in a 96-well clear-bottom plate (Costar 3603) with 50 μg of total protein in 200 μL of lysis buffer. The fluorogenic proteasome substrate Suc-LLVY-AMC (Bachem 1-1395) was added to a final concentration of 100 μM. Fluorescence intensity with an excitation wavelength of 380 nm and an emission wavelength of 460 nm was recorded at 5-minute intervals using a Neo2 plate reader (BioTek) set to mix constantly and maintain 30° C. Negative control reactions were performed in the presence of 50 μM MG132 (Sigma 474787), a proteasome inhibitor.

[2] = system: S. cerevisiae; assay type: cell-based
Protocol: To obtain the single-cell level data for the age and generation-durations of replicatively aging mother cells, data reported in Liu, P., et al., Cell Rep. 634-644 (2015) was re-analyzed. The data was collected in the same media condition (CSM 2% glucose) as reported elsewhere herein. Cells were grown for ˜24 hours in CSM 2% glucose prior to loading to the microfluidic device. Once cells were loaded, media was swapped to provide CSM 2% glucose control media (untreated), media containing DMSO as a vehicle control (American Bio AB00435), media containing 10 μM terreic acid (Sigma SML0480), media containing 10 μM mycophenolic acid (Sigma M5255), or media containing another compound at the indicated concentration. An automated microscope was used to track […], and replicative lifespan was later determined by counting the number of daughters produced before death. In the case of compound validation, only newborn cells were included in the lifespan experiment. To compare the replicative lifespan of labeled and unlabeled cells, only cells that were present within the traps at the start of the experiment were included. For these experiments, cells were loaded to the microfluidic device at an increased rate of 100 μL/min to increase the number of trapped mother cells. Green fluorescent images were also taken at the start of the experiment to confirm that the cells were visibly labeled.
Differences in lifespan characteristics were assessed through Log-Rank test using MATLAB with a cut-off value of P=0.05. The script for Log-Rank test was downloaded from MATLAB. Differences in proteasome activity were assessed using the unpaired, two-tailed, parametric t-test function of the GraphPad Prism software.
The Longevity Placement Test (LPT) was designed as a mutually exclusive, collectively exhaustive test to determine the relationship of a longevity intervention to a known genetic regulator of lifespan. For a given intervention that extends lifespan, any of three possible relationships may exist relative to a known genetic regulator of lifespan. (1) The intervention may act to extend lifespan independently from the known regulator. (2) The […] may act downstream from the known regulator, converging on a single component of the known regulator's lifespan pathway. (3) The intervention may act upstream from or upon the known regulator, ultimately modulating lifespan through the genetic regulator.
In Step 1 of the LPT, the longevity intervention is applied to a strain in which a genetic regulator of lifespan is deleted. In the event that lifespan extension from the longevity intervention is observed in this background, only possibilities (1) and (2) above remain valid (FIG. 7B). If no lifespan extension is observed, then possibilities (2) and (3) remain valid. Possibility (2) cannot be ruled out in this step, since non-saturating action by the genetic regulator could leave room for lifespan extension by the longevity intervention, while saturating action would preclude it.
In Step 2 of the LPT, an epistatic agent, which prevents lifespan extension from the longevity agent, is applied to a strain in which some upstream member of the genetic regulator's lifespan pathway has been modified to extend lifespan. This step differentiates possibility (2) from the remaining possibility after Step 1. In the event that lifespan extension from the genetic regulator's pathway is suppressed by the epistatic agent, this determines that possibility (2) is correct. In the event that no epistasis is observed, the remaining possibility, (1) or (3), is correct (FIG. 7C).

[3] = system: Saccharomyces cerevisiae; assay: High-Life (High throughput replicative Lifespan measurement) flow cytometry assay in MEP yeast; assay type: cell-based; conditions: 10 μM, 24 hours in culture, 3-4 replicate wells, repeat of screen hits
Protocol: Cells were labeled with NHS-fluorescein as described above, then diluted to 20 cells/μL in media. 80 μL/well was aliquoted to 384-well plates, which were covered with a breathable membrane and placed on a shaker platform in a humidified incubator. After 3 hours, the plates were removed from the incubator and each well was treated with 20 μL pre-warmed, 30° C. 5 μM β-estradiol in media. In the case of ibuprofen or compound-treated wells, the compound was diluted in this volume at a 5× concentration to achieve a final concentration of 10 μM, or 100 μM for ibuprofen. The plates were then returned to the incubator. At indicated times, one plate was removed from the incubator and placed on an autosampler cooled to 8° C. attached to a Stratedigm flow cytometer. The cytometer was set to automatically add and mix 20 μL of aqueous solution containing 60 μg/mL CF405M-WGA (Biotium 29028) and propidium iodide (Sigma P4864) prior to acquiring 80 μL of sample for each well.
In order to test the lifespan of model organisms on both a large-scale and with quick turn-around, a massively multiplexed method was developed to measure replicative lifespan in the short-lived model organisms Saccharomyces cerevisiae. The protocol uses green-fluorescent labeling to identify progenitor cells, red-fluorescent labeling to differentiate non-viable cells, and blue-fluorescent labeling of bud scars to determine replicative age (FIG. 1). Each parameter is measured using a flow cytometer.
To achieve high throughput, the measurement system was automated, and the assay was performed in 384-well plates. The assay was performed using an autosampler-equipped flow cytometer, in a volume of 100 μL. Growth of even a single cell and its progeny in such a small volume will result in nutrient starvation before the natural replicative lifespan is exhausted; therefore to circumvent this issue, High-Life experiments were performed in the background of the Mother Enrichment Program (MEP) (Lindstrom and Gottschling, Genetics. 2009 October; 183(2):413-22). MEP strains express a CRE recombinase fused to an estrogen-binding domain for only a short time after birth. In the presence of β-estradiol, the recombinase translocates to the nucleus where it can excise two essential genes that have been modified to contain the exogenous LoxP sequence. Addition of β-estradiol to the media thus renders newborn daughters inviable without affecting existing mother cells, preventing exponential growth of the cell population and nutrient depletion (FIG. 2A).
The High-Life method was then tested to determine if it was suitable to screening for compounds that extend replicative lifespan. […] The effect of these compounds on High-Life readings was assayed after 24 hours in culture at 10 μM concentration. As a positive control, ibuprofen was used.

[4] = system: C. elegans; assay: Roundworm (C. elegans) lifespan extension; assay type: in vivo, Caenorhabditis elegans; conditions: 10 μM in NGM plates, treated for duration of lifespan, vs control
Protocol: Synchronized animals were obtained using the egg-laying method, allowing young […] eggs for 4 hours on bacteria-seeded plates. For each treatment group, 120 synchronized day-1 adults were used. All experiments were carried out at 20° C. Treatment groups were blinded. Nematode growth media (NGM) plates were made for each treatment group: Negative control (DMSO), Mycophenolic Acid (10 μM in DMSO), and Terreic Acid (10 μM in DMSO). The compounds were added to NGM media before pouring the plates. The plates were then dried overnight before moving them to 4° C. to prevent degradation of the compounds. Plates were seeded with 100 μL of 10× concentrated OP50 E. coli, and dried overnight at room temperature. Plates were UV treated with a UVP CL-1000 Ultraviolet Crosslinker, run twice on the energy setting ‘9999’ for about 5 minutes each run. Worms were transferred to new plates every 2-4 days. Viability was scored every day, with death determined by lack of response to a platinum wire. Missing worms, or those that died due to internal hatching were censored.

Structure (SMILES): CC(C)C[C@@H](C=O)NC(=O)[C@H](CC(C)C)NC(=O)[C@H](CC(C)C)NC(=O)OCc1ccccc1 [MG-132] (Cbz-Leu-Leu-Leu-aldehyde)
- rate of fluorescence increase in proteasome assay (negative control) ([1]; 50 μM MG132): low rate of fluorescence increase

Structure (SMILES): Nc1nc2nc[nH]c2c(=O)[nH]1 [guanine]
- reversal of lifespan extension conferred by SIR2 overexpression (LPT step 2) ([2]; SIR2 overexpression, guanine as epistatic agent): did not reverse the lifespan extension
- suppression of lifespan extension in ΔHXK2 strain (LPT step 2) ([2]; ΔHXK2 strain, guanine as epistatic agent): did not suppress lifespan extension
- suppression of lifespan extension in ΔTOR1 strain (LPT step 2) ([2]; ΔTOR1 strain, guanine as epistatic agent): did not suppress lifespan extension
- suppression of lifespan extension from UBR2 deletion (LPT step 2) ([2]; ΔUBR2 strain, guanine supplementation): partially suppressed lifespan extension
- proteasome activity in ΔUBR2 cells ([1]; ΔUBR2 cells, presence vs absence of guanine): did not alter proteasome activity

Structure (SMILES): CC1=C(O)C(=O)[C@@H]2O[C@@H]2C1=O [terreic acid]
- average High-Life readings (progenitor fraction viable vs CF405M intensity) relative to controls [3]: at least slightly above controls
- extension of mean RLS ([2]; 10 μM compound, wild-type haploid cells, Replicator device): 15%
- lifespan of C. elegans [4]: measurable extension of lifespan; also recorded: statistically significant lifespan extension
